Here are results for one compound from publication PMC12491701, “Discovery of an APP-selective BACE1 inhibitor for Alzheimer's disease” (Neurotherapeutics, 2025).

Several values for one entry are separate records, joined by “and”; a condition that tells them apart may be missing. Identical values can stand only once.

The nature of data set [1]: Plasma stability assay. Format: in vitro ADME. The following applies: human plasma diluted 2-fold in PBS, pH 7.4, 37 °C, 180 min, read-out: Plasma stability t1/2. The method, then:
The effects of candidate ASBIs on BACE2 activity was assessed using the R&D Systems BACE2 activity assay kit (Catalog #: 4097-AS and ES010) formatted from to the manufacturers. For the assay, 4 μL of assay buffer was added to each well, followed by 2 μL of BACE2 diluted in assay buffer to 10 ng/µL.
Then, 2 μL of inhibitor, at the appropriate concentrations were added to the wells and incubated for 30 minutes at room temperature. For all dilutions of inhibitor, drug stock solutions of 10 mM in DMSO were diluted to 50 μM in water; subsequent dilutions were in 0.5% DMSO. Afterwards, 2 μL of fluorogenic BACE2 substrate, diluted to 50 μM in assay buffer, were added to each well, after which the signal generated was read every 30 minutes at 25 °C for 2 hr (Fig S2).
FAH65 and its enantiomers at 10 mM in 100% DMSO was diluted in PBS pH 7.4 to 100, 10, 1, and 0.1 µM; plus, a vehicle-only control. The solutions were incubated at 37 °C for 90 min and centrifuged at 16K x g for 5 min. An aliquot of each supernatant was analyzed by LC-MS/MS. […]
Kinetic solubility (µM) was calculated using the trendline equation with maximum chromatographic peak area observed in the aqueous sample. […]
([…]® CAN, Chiral Technologies, Cat#H15L-109, 5 µm 50 x 4 mm). […] The retention time of the compound (tr) and injection peak were recorded.
The percent protein binding (P) was calculated using the following equations: […]

For data set [2], the system named is CHO cells that express APP with the Swedish (Swe) K595N/M596L mutation. The experiment in a line: Aβ1-42 production in CHO-7W Swe cells. It counts as cell-based, Chinese hamster. The following applies: 1 μM, 24-h treatment, in words. As to the method:
The Chinese hamster ovary (CHO) cell line overexpressing human AβPP (7W) stably transfected with human APP or overexpressing APP with the Swedish (Swe) K595 N/M596L mutation were incubated with FAH compounds diluted to 1 μM overnight. Culture Media was collected and frozen. Media was assayed using an AlphaLISA for Aβ1-42 (Perkin Elmer catalog # AL276C), sAPPα (R&D Systems catalog # AF1168 conjugated with Perkin Elmer acceptor beads catalog # 6772001 + 2B3 antibody from IBL catalog # 11088 biotinylated), and sAPPβ (Perkin Elmer AL276-acceptor + IBL catalog # 18957 biotinylated). For the assay, 2 μL of diluted or undiluted sample was added to a 384 well plate, followed by 2 μL of the respective antibody mixture. This was incubated for 1 h. Afterwards, 2 μL of donor beads was added to each well, followed by a 30-min incubation in the dark, after which the signal was read.

The target of data set [3] is BACE1 (Homo sapiens, UniProt P56817). The experiment in a line: P5-P5′ BACE1 inhibition assay. Particulars: cell-free; read-out: BACE1 IC50 (P5-P5′ assay; BACE1-APP). Format: biochemical.
Method: For the P5-P5′ BACE1 inhibition assay, 4 ​μL of assay buffer was added to each well, followed by 2 ​μL of BACE1 diluted in assay buffer to 7.5 ​ng/μL. Then, 2 ​μL of inhibitor, at concentrations along an 11 ​pt. two-fold dilution series starting at 10 ​μM, or 0.5 ​μM, were added to appropriate wells and incubated for 30 ​min at room temperature. For all dilutions of inhibitor, drug stock solutions of 10 ​mM in DMSO were diluted to 50 ​μM in water; subsequent dilutions were in 0.5 ​% DMSO. Afterwards, 2 ​μL of fluorogenic P5-P5′ BACE1 substrate, diluted to 50 ​μM in assay buffer, were added to each well and the signal generated was read every 30 ​min at 25 ​°C for 2 ​h.
Data set [4] deals with T1, cathepsin D (CatD) (Homo sapiens, UniProt P07339).
T1 construct: purchased R&D Systems 1014-AS
The experiment in a line: Cathepsin D activity assay. Format: biochemical. The method, then:
The effects of candidate ASBIs on cathepsin D (CatD) activity was assessed using the R&D Systems CatD activity assay kit (Catalog #: 1014-AS and ES001) according to the manufacturer's instructions. For the assay, 4 μL of assay buffer was added to each well, followed by 2 μL of CatD diluted in assay buffer to 5 ng/uL. Then, 2 μL of inhibitor, at concentrations along an 11 pt. two-fold dilution series starting at 50 μM, were added to appropriated wells and incubated for 30 min at room temperature. For all dilutions of inhibitor, drug stock solutions of 10 mM in DMSO were diluted to 50 μM in water; subsequent dilutions were in 2.5 % DMSO. Afterwards, 2 μL of fluorogenic CatD substrate, diluted to 50 μM in assay buffer, were added to each well, after which the signal generated was read every 30 min at 25 °C for 1hr.

For data set [5], the system named is BACE1 cleavage of rat APP. The experiment in a line: Pilot PD of FAH65 vs. verubecestat in rats (CSF and medial cortex biomarkers). Format: in vivo. Particulars: oral, 30 mg/kg.
Method: The hERG study was conducted at Eurofins (CEREP PanLabs).
Compound binding was calculated as a % inhibition of the binding of a radioactively labeled ligand specific for each target. While results showing an inhibition or stimulation higher than 50% are considered to
For these pilot experiments eAPP as described in Descamps et al (26) is crosslinked to a the CM5 Biacore chip. […] The raw data uncorrected for contribution of running buffer is fit to equilibrium binding data and corrected for the contribution of the running buffer to
pharmacokinetic (PK)/pharmacodynamic (PD) study to assess relative brain permeability and target engagement. Adult male and female Sprague-Dawley rats (≥ 200 g) were dosed at 30 mg/kg/day with
Animals were euthanized at 1, 2, 3, 6, 12 and 24 hours (n = 1/time point; 2 untreated controls) post-dose by pentobarbital over-anesthesia followed by collection of cerebrospinal fluid (CSF), trans-cardial blood collection for the isolation of plasma, perfusion with cold saline, and collection of brain tissue (medial cortex) for biochemical analyses (Fig. S3).

BACE1, sequence (P56817 46-501): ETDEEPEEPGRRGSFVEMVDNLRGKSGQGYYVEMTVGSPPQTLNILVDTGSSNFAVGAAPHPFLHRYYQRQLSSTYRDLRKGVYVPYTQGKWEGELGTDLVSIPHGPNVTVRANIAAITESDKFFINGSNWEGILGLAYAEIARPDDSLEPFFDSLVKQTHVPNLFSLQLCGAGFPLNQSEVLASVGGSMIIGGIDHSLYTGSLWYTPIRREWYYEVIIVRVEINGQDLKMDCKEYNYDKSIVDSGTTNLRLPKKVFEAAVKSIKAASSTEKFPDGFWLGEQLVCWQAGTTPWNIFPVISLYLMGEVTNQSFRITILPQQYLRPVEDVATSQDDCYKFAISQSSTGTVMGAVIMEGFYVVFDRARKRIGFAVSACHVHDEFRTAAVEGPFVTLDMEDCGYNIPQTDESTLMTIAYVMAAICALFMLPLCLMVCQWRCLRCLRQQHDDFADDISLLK
T1 sequence (P07339 65-412): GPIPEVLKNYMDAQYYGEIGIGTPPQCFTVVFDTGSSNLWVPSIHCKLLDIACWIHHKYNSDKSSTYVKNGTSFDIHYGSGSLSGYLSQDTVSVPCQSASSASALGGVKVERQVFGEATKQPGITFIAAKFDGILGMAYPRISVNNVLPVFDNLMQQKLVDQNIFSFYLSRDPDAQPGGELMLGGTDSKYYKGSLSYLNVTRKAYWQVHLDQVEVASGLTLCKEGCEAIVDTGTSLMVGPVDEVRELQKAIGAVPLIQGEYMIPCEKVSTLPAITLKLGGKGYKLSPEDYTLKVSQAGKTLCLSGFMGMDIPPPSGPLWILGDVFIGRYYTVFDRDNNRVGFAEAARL

On to `Cc1cc(C2(c3cccc(-c4cncnc4)c3)N=C(N)N(C)C2=O)ccc1OC(F)F` (stereo not shown) [FAH65], for which the half-life at 1 µM in data set [1] was > 3 h. Moreover, the Aβ1-42 result in data set [2] is reported as “significantly decreases”. The IC50 in data set [3] is 7 nM and 10 to 30 nM and 10 nM and ~10 nM. Further, the “inhibition of cathepsin D activity” value in data set [4] (in words) is reported as “Neither analog significantly inhibited”. In data set [4] (read-out: Cat D IC50), the IC50 was ~47000 nM. For the same compound, in data set [5], the “time post-delivery of lowest sAPPβ in brain (medial cortex)” value came out at 6 h. The “time post-delivery of lowest sAPPβ in CSF” value in data set [5] (1- and 2-h FAH65 samples not available) was 3 h. In data set [5] (in words), the “Aβ1-40 in CSF compared with Veru-treated rats” value was “lower”, the “sAPPα levels in brain medial cortex” value was “higher” and the “sAPPβ in CSF compared with Veru” value is “lower”.
